Data set [1] deals with BioA (Mycobacterium tuberculosis, UniProt P9WQ81). Description: BioA inhibition assay (coupled BioA/BioD fluorescence displacement, IC50). The data set is classed as biochemical. The following applies: 50 nM BioA.
The test system of data set [2] is Mtb H37Rv. Description: microbe, parasite or virus in culture. The class given is cell-based, Mycobacterium tuberculosis. The following applies: biotin-free medium; for MIC50: Mycobacterium tuberculosis, H37RV.
The nature of data set [3]: in vivo. The following applies: female, CD-1, mouse; for Vd / clearance / half-life: iv; for AUC(0-inf) / bioavailability: po, 25 mg/kg.
The test system of data set [4] is Mtb H37Rv. Description: C48 biotin deficient TB efficacy study. The class given is in vivo, BALB/c mice. The following applies: 25mg/kg.
Data set [5] relates to M. bovis 0AF2122. Description: microbe, parasite or virus in culture. The data set is classed as cell-based. The following applies: Mycobacterium tuberculosis variant bovis.
In data set [6] the test system is M. africanum. Description: MIC screening against M. africanum. The following applies: Mycobacterium tuberculosis, MTBC. The class given is cell-based.
In data set [7] the test system is Mtb H37Rv. The class given is in vivo, BALB/c mice. The following applies: for bacterial burden per mouse, Fig. 5B: 10 mg/kg.
For data set [8] the following is noted: p.o. 25 mg/kg, CD-1 mice.
Where [9] appears, read: day 7 (values identical to Control: baseline).

In brackets after ≈: the same amount, converted by molar mass. Several values for one entry are separate records, joined by “and”; a condition that tells them apart may be missing. Identical values can stand only once. Like-named read-outs stand apart in the source and are kept apart here.

The record followed here is doi:10.1101/2025.09.24.678246 (bioRxiv, 2025).

By IC50 is commonly meant the midpoint of a concentration-inhibition curve. Lower therefore signals inhibition by little substance. As usually defined, the Vd is a proportionality between amount in the body and measured concentration, not a real space. Low values mean little distribution into tissue, high ones wide distribution into tissue. One may read the clearance as the volume of plasma or blood freed of the substance per unit of time. Higher therefore signals a high capacity for elimination. Usually half-life stands for the time needed for the level to fall by half in the phase considered. A low value points to fast loss. Usually AUC(0-inf) stands for the area under the concentration-time curve extrapolated to infinity. Higher therefore signals high exposure. The term bioavailability denotes dose-corrected exposure relative to a reference, in per cent.

BioA, sequence (P9WQ81 whole entry, looked up): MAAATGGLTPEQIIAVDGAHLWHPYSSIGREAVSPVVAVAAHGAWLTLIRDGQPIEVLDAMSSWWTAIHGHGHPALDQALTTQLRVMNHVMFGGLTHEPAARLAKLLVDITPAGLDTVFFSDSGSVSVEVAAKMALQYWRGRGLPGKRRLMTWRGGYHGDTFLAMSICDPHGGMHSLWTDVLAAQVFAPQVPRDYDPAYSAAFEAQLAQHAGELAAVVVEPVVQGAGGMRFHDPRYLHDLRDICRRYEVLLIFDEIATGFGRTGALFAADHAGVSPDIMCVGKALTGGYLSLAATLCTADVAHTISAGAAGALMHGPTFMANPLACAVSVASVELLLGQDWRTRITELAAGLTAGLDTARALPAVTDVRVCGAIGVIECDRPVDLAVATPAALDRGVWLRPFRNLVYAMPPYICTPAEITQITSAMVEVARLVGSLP

Compound `O=C1CCc2cc(N3CCN(C(=O)c4ccc(F)c(Br)c4)CC3)ccc21` [C21] returned an IC50 in data set [1] of 81 nM. In data set [1] (C21 1.58114 nM), the activity came out at 106% and the activity at 0.00158114 µM was 106%. In data set [1] (C21 5 nM), the activity was 98% and 96.4%; the activity at 0.005 µM turned out to be 102%. Besides, in data set [1] (C21 15.8114 nM), the activity was 91.7% and 90.1%; the activity at 0.0158114 µM is 91.3%. Besides, in data set [1] (C21 50 nM), the activity is 59.9% and 51.5%; the activity at 0.05 µM is 59.5%. Also, in data set [1] (C21 158.114 nM), the activity was 31.6% and 29.9%; the activity at 0.158114 µM amounted to 32%. Also, in data set [1] (C21 500 nM), the activity was 25% and the activity at 0.5 µM worked out at 25.1%. For the same compound, in data set [1] (C21 1581.14 nM), the activity was 18.2% and 16.8%; the activity at 1.58114 µM stood at 19.4%. Besides, in data set [1] (C21 5000 nM), the activity was 7.65% and 7.4%; the activity at 5 µM is 8.48%. For the same compound, in data set [2], the MIC50 turned out to be 1.9 µM (≈ 0.793 µg/mL) and the “increase in potency against Mtb versus 6” value is given as 6 fold. In data set [3], this compound gave a Vd of 0.37 L/kg, a clearance of 5.3 mL/min/kg, a half-life of 49.2 min and an AUC(0-inf) of 108000 ng·h/mL. In addition, the bioavailability in data set [3] was > 100%.
For `NNC(=O)c1ccncc1` [INH, isoniazid, reference compound], the “bacterial burden per mouse, Fig. 5C” value was 360 and 1090 and 400 and 320 and 700 and 200 in data set [4] (setting [9]); 1 in data set [4] (day 28). The “bacterial burden per mouse, Fig. 5D (second organ, not given)” value in data set [4] (setting [9]), in data set [4] (day 21) and in data set [4] (day 28) was 1 throughout.
In the case of `CC(=O)NC[C@H]1CN(c2ccc(N3CCOCC3)c(F)c2)C(=O)O1` [Linezolid, reference compound], the MIC in data set [5] and in data set [6] was 1.56 µM (≈ 0.526 µg/mL) each time.
In the case of `CO[C@H]1/C=C/O[C@@]2(C)Oc3c(C)c(O)c4c(O)c(c(/C=N/N5CCN(C)CC5)c(O)c4c3C2=O)NC(=O)/C(C)=C\C=C\[C@H](C)[C@H](O)[C@@H](C)[C@@H](O)[C@@H](C)[C@H](OC(C)=O)[C@@H]1C` [Rifampicin, rifampicin, reference compound], the “bacterial burden per mouse, Fig. 5B” value in data set [7] (day 14 (values identical to Vehicle Control: baseline)) is 24500 and 14500 and 16500 and 43500 and 12750; in data set [7] (day 28) it was 8250 and 7500 and 19750 and 6250 and 14250; in data set [7] (day 42), 2875 and 750 and 950 and 2450 and 2025. For the same compound, the “spleen CFU” value in data set [7] (Rifampicin 10mg/kg p.o., Day 42, standard acute model, BALB/c, per mouse) is 0 CFU.
In turn, `CC(=O)c1ccc(N2CCN(C(=O)c3ccc4c(c3)OCO4)CC2)cc1` [compound 6] showed an IC50 in data set [1] of 110 nM. In addition, the MIC50 in data set [2] stood at 12 µM (≈ 4.23 µg/mL). For the same compound, the plasma concentration in data set [8] (0 h) was 0. For the same compound, the plasma concentration in data set [8] (3 h, 25 mg/kg) is 32.3 and 18.2 and 24.6. Also, the plasma concentration in data set [8] (24 h) was 1. In data set [3], the Vd amounted to 0.54 L/kg, the clearance came out at 30.6 mL/min/kg, the half-life is 12 min and the AUC(0-inf) amounted to 460 ng·h/mL. This compound registered a bioavailability in data set [3] of 3.4%.
